# Results from PMC7756341, “Liposomal FRET Assay Identifies Potent Drug‐Like Inhibitors of the Ceramide Transport Protein (CERT)” (Chemistry (Weinheim an Der Bergstrasse, Germany), 2020).
# Several values for one entry are separate records, joined by “and”; a condition that tells them apart may be missing. Equal entries are not always repeated. Where two headings read alike, the source gives them in different places.
# Biological target: T1, START domain of human CERT (Homo sapiens, UniProt Q9Y5P4)
# T1 construct: The START domain of hCERT was expressed has a His6-SUMO fusion protein [2]; His6-SUMO (N, cleaved yes); made in house; host or cells: E. coli BL21(DE3), pQE-based plasmid
# T1 sequence (Q9Y5P4 347-598 isoform Q9Y5P4-2 limits assumed): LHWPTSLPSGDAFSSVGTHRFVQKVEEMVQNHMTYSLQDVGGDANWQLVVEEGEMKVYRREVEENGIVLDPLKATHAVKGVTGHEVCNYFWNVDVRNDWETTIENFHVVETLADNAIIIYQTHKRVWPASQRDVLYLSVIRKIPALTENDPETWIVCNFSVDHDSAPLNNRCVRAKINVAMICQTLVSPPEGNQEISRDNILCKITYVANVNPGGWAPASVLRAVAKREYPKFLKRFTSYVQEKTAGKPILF
# Assay: Microscale thermophoresis (MST) binding assay
# Details: for Kd: fluorescently labeled START domain 50 nM
# Procedure: 1.2 Expression and purification of the START domain of human CERT
# The START domain of hCERT was expressed has a His6-SUMO fusion protein [2]. The pQE-based plasmid harboring the genetic information of His6-SUMO-START was transformed into E. coli BL21(DE3) by following the standard heat shock method. Colonies were grown on carbenicillin ([…]) and 1% glucose supplemented Luria–Bertani (LB) agar plates. A single colony was used to inoculate 20 ml of pre-culture 1 % of which was then used to inoculate 500 ml of LB medium ([…] carbenicillin, 10 mM glucose, 37 °C, 160 rpm). Upon reaching OD600 = 0.8, the culture was induced with 500 μM IPTG (isopropyl-β-d-thiogalactoside) and cells were incubated for 16 h with continuous shaking at 160 rpm. The cells were harvested by centrifugation […]
# For purification of the protein, the cell pellet was re-suspended in lysis buffer (25 mM Tris/HCl, pH 7.4, 270 mM Sucrose, 1% Triton X-100, 2.5 mM dithiothreitol (DTT), Protease/Phosphatase inhibitor) on ice. Cells were disrupted using an EmulsiFlex-C3 instrument (Avestin Inc.; CANADA). The lysate was cleared by centrifugation, and the supernatant was loaded onto a Ni– NTA column (Qiagen). The protein was washed with loading buffer pH 7.4 (50 mM Na2HPO4, 50 mM NaH2PO4, 150 mM NaCl, 2,5 mM DTT) containing 20 mM imidazole and eluted with elution […]
# mM imidazole. Fractions containing the protein of interest according to SDS-PAGE were pooled and digested with Ubiquitin-like-protein specific protease 1 (ULP1). The by-products (His6-SUMO and ULP1) were removed in a second IMAC step, and the target protein was subjected to a final purification by gel filtration on a superdex 200 16/600 prep grade column equilibrated with loading buffer pH 7.4 (50 mM Na2HPO4, 50 mM NaH2PO4, 150 mM NaCl, 2.5 mM DTT). The monomeric form of the START domain of hCERT was collected. The final concentration of the protein was determined via UV-Visible spectrophotometry (Varian Cary 50) at 280 nm using a calculated extinction coefficient of 50420 (M-1 cm-1).
# 4. Microscale Thermophoresis (MST) assays
# 4.1 Labeling of the START domain with a fluorophore dye
# In order to perform MST assays, the START domain was coupled with a commercially available fluorophore dye (NT647 (NanoTemper Technologies, Munich, Germany)) following standard procedures provided in the manufacturer's protocol. Briefly, 10 µM of the START domain was labeled with 30 µM of the fluorophore in NHS-LB buffer kept in the dark for 30min. Any excess of the dye was removed via size exclusion chromatography on a Sephadex G25 column (GE Healthcare). The concentration of the labeled protein was determined by UV-VIS spectrophotometry at 280 nm (Varian Cary 50).
# 4.2 Preparation of the dilution series and MST assay
# Dilution series of small-molecule ligands were prepared from stock solutions in DMSO. In case of 6B11 and 17C9, ligands were then diluted into MST buffer (50 mM Na-phosphate, 150 mM NaCl, 2.5 mM DTT, 0.05% Tween-20) to a concentration 2-fold higher than the maximum concentration used in the assay. The concentration of DMSO was kept constant in all dilutions. 16 dilutions of the ligands were prepared in micro reaction tubes by successive 1:1 dilutions with […]
# solubility problems. To this end, first, a dilution series in pure DMSO was generated. The individual dilutions were then further diluted 20-fold with MST buffer to a ligand concentration 2-fold higher than its final concentration. As a final step, 10 μL of the fluorescently labeled START domain was added to all reaction tubes containing 10 μL of ligand solution. The final concentration of START domain was 50 nM. After mixing, 2-3 μL of the reaction mixture were filled into standard capillaries (Nanotemper Technologies).
# MST measurements were performed with a Monolith NT.115 instrument (Nanotemper Technologies). All ligands were measured as triplicates. 40% MST excitation power was set and, depending on the labeled protein concentration used in the assay, between 5% to 20% of LED […]
Kd (read-out: KD),SMILES,further results
~5 µM and 2.32 µM,"CCCC(=O)OCOC(=O)C1=C(C)NC(C)=C(C(=O)OC)C1c1cccc(Cl)c1Cl (stereo not drawn) [6B11, Clevidipine butyrate]",–
~5 µM and 6.77 µM,"O=C(NC1CCN(CCCCC2(C(=O)NCC(F)(F)F)c3ccccc3-c3ccccc32)CC1)c1ccccc1-c1ccc(C(F)(F)F)cc1 [8E8, lomitapide]",–
–,"CC1=NN(c2ccc(C)c(C)c2)C(=O)/C1=N\Nc1cccc(-c2cccc(C(=O)O)c2)c1O [17C9, Eltrombopag]",binding confirmed by MST (labeled START domain): confirmed binding for all compounds except 17C9
–,"Cc1cc(C2=NOC(c3cc(Cl)cc(Cl)c3)(C(F)(F)F)C2)ccc1C(=O)NCC(=O)NCC(F)(F)F (stereo not drawn) [20D5, Fluralaner]",Kd (KD): ~150 µM and 153 µM
0.0415 µM,"CCCCCCCCCCCC(=O)NC(CO)CC(O)c1ccccc1 (stereo not drawn) [HPA-12, N-(3Hydroxy-1-hydroxymethyl-3-phenylpropyl)-dodecamide]","Kd (listed as HPA‐12, read-out: KD): ~0.04 µM"
